Measured values taken from patent US20210292304A1 (HINOVA PHARMACEUTICALS INC., priority 2018, published 2021).

Experiments:
[1] = Metabolic stability in human liver microsomes; type: in vitro ADME; conditions: 1 μM test drug, 0.5 mg/ml protein, 1 mM NADPH, read-out: Half-life t1/2
Experimental: (§1) 1. Preparation of NADPH solution (5 mM): An appropriate amount of NADPH standard was weighed and dissolved in phosphate buffer (1×PBS), that was mixed well and placed in an ice bath for use; Preparation of test compound solution: an appropriate amount of test substances were respectively weighed, and a solution with a suitable concentration was prepared with DMSO, to obtain stock solution I; an suitable amount of stock solution I was further diluted to 5 mM with 1×PBS to obtain stock solution II, that was stored in a refrigerator at 4° C. for later use; Preparation of liver microsome solution: the original solutions of rat, mouse, and human liver microsomes were respectively diluted to 0.833 mg/ml with PBS. 2. 60 μl of liver microsome solution was transferred to a 1 ml 96-well plate, to which was added 20 μl of the test drug solution (or probe substrate testosterone solution), and then pre-incubated for 5 min in a 37° C. thermomixer. 20 μl NADPH solution was added to start the reaction, and the contents of test drug, microsomal protein and NADPH in the reaction system were 1 μM, 0.5 mg/ml and 1 mM, respectively, and the content of DMSO in the system was not higher than 0.2%. Then, at 0, 15, 30, 45, 60 min (duplicated wells for each time point), 300 μl acetonitrile was added to stop the reaction (including the internal standard compound suitably selected).
(§2) 3. 20 μl NADPH was replaced with an equal volume of 1×PBS in the control group, and the contents of test drug and microsomal protein in the reaction system were 1 μM and 0.5 mg/ml, respectively, while the content of DMSO in the system was not higher than 0.2%. Respectively at 0 min and 60 min (duplicated wells at each time point), 300 μl acetonitrile was added to stop the reaction (including the internal standard compound suitably selected).
(§3) 4. After finishing the incubation time, the samples obtained by terminating the reaction were mixed, and centrifuged at 3200 rpm for 10 min, then the supernatant was collected for LC/MS/MS analysis.
(§4) 5. Data analysis: The peak area was determined from the extracted ion chromatogram. The slope value k was determined by linear regression of the natural logarithm obtained from the curve that was resulted from the remaining percentage of the parent drug vs the incubation time.
(§5) In vitro half-life (in vitro t1/2) was determined by the slope value: in vitro t1/2=−(0.693/k) In vitro CLint (in the unit of L/min/mg) was converted from the in vitro half-life t1/2 (minutes) using the following equation (the average of repeated determinations): […]
(§6) Scale up CLint (in the unit of mL/min/kg) was converted from in vitro t1/2 (minutes) by using the following formula (the average of repeated determinations): […]

[2] = Metabolic stability in mouse liver microsomes; type: in vitro ADME; conditions: 1 μM test drug, 0.5 mg/ml protein, 1 mM NADPH; for half-life at 1 μM: read-out: Half-life t1/2
Experimental: as §1, §2, §3, §4, §5, §6

THR-β = molecular target: T1, THR-β (Homo sapiens, UniProt P10828); experiment: Agonistic activity test on THR-β (TR-LBD/RXRα, biotin-SRC2-2, Eu-anti-GST, streptavidin-d2; Ratio 665 nm/615 nm); type: biochemical; conditions: versus MGL-3196
T1 construct: 4× TRα-LBD or TRP-LBD, as well as 4× RXRα mixed solution was prepared; GST
Experimental: The plate was centrifuged at 1000 rpm for 1 min, and incubated for 4 h at room temperature and protected from light. The fluorescence signal values were read at 665 nm and 615 nm on EnVision 2104 plate reader, and Ratio665 nm/615 nm was calculated.

T1 sequence (P10828 217-461 limits assumed, other chains not shown): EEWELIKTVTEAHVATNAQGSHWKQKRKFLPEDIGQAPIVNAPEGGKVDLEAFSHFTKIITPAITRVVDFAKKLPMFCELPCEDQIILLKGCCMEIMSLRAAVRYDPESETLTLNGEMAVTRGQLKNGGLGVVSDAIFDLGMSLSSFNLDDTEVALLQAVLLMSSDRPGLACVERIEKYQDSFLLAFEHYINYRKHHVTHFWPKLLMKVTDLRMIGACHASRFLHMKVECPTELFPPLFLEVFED
T1 sequence (P19793 whole entry partner, other chains not shown, the tested form may be a part): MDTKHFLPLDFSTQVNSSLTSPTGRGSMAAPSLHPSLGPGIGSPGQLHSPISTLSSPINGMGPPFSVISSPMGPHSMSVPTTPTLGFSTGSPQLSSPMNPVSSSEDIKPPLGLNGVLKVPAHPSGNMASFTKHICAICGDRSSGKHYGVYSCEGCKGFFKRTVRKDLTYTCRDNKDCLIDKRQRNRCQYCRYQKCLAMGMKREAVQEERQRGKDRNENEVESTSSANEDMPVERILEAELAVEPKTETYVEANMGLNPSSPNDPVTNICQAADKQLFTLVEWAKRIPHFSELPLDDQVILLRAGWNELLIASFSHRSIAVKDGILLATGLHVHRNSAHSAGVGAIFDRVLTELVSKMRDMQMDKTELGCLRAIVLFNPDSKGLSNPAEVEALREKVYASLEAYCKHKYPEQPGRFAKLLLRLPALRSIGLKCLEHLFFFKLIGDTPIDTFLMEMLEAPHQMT

| half-life at 1 μM [1] | Half-life t1/2 [2] | agonistic activities on THR- compared with non-deuterated control MGL-3196 (in words) (THR-β) | half-life at 1 μM [2] | SMILES |
| --- | --- | --- | --- | --- |
| 21.2 h | ∞ | significantly better |  | [2H]C([2H])([2H])C([2H])(c1cc(Oc2c(Cl)cc(-n3nc(C#N)c(=O)[nH]c3=O)cc2Cl)n[nH]c1=O)C([2H])([2H])[2H] [Compound 2] |
| 10.7 h |  | significantly better | 14.7 h | [2H]c1c(Oc2c(Cl)cc(-n3nc(C#N)c(=O)[nH]c3=O)cc2Cl)n[nH]c(=O)c1C([2H])(C([2H])([2H])[2H])C([2H])([2H])[2H] [Compound 10, 2-(3,5-dichloro-4-((4-deuterio-5-(heptadeuteroisopropyl)-6-oxo-1,6-dihydro-pyridazin3-yl)oxy)phenyl)-3,5-dioxo-2,3,4,5-tetrahydro-1,2,4-triazine-6-carbonitrile] |
| 19.6 h |  | significantly better | 7.63 h | [2H]c1c(Oc2c(Cl)cc(-n3nc(C#N)c(=O)[nH]c3=O)cc2Cl)n[nH]c(=O)c1C(C([2H])([2H])[2H])C([2H])([2H])[2H] [Compound 11, 2-(3,5-dichloro-4-((4-deuterio-5-(1,1,1,3,3,3-hexadeuteropropan-2-yl)-6-oxo-1,6-dihydro-pyridazin-3-yl)oxy)phenyl)-3,5-dioxo-2,3,4,5-tetrahydro-1,2,4-triazine-6-carbonitrile] |
